Tests used:
Test in all cases: Post-Emergent Test III (Wheat and Barley)
[1] = test system: SASKR (Russian thistle); format: in vivo, Salsola tragus; conditions: for Visual Growth Reduction (%) 21 Days After Application, SASKR: postemergence
Procedure: (§1) Seeds of the desired test plant species were planted in Sun Gro MetroMix® 306 planting mixture, which typically has a pH of 6.0 to 6.8 and an organic matter content of about 30 percent, in plastic pots with a surface area of 103.2 square centimeters (cm^2). When required to ensure good germination and healthy plants, a fungicide treatment and/or other chemical or physical treatment was applied. The plants were grown for 7-36 days in a greenhouse with an approximate 14 h photoperiod which was maintained at about 18° C. during the day and 17° C. during the night. Nutrients and water were added on a regular basis and supplemental lighting was provided with overhead metal halide 1000-Watt lamps as necessary. The plants were employed for testing when they reached the second or third true leaf stage.
(§2) A weighed amount, determined by the highest rate to be tested, of each test compound was placed in a 25 mL glass vial and was dissolved in 4 mL of a 97:3 v/v mixture of acetone and DMSO to obtain concentrated stock solutions. […] The concentrated stock solutions obtained were diluted with 20 mL of an aqueous mixture containing acetone, water, isopropyl alcohol, DMSO, Agri-Dex crop oil concentrate, and X-77 surfactant in a 48:39:10:1.5:1.5:0.02 v/v ratio to obtain spray solutions containing the highest application rates. Additional application rates were obtained by serial dilution of 12 mL of the high rate solution into a solution containing 2 mL of 97:3 v/v mixture of acetone and DMSO and 10 mL of an aqueous mixture containing acetone, water, isopropyl alcohol, DMSO, Agri-Dex crop oil concentrate, and X-77 surfactant in a 48:39:10:1.5:1.5:0.02 v/v ratio to obtain ½×, ¼×, ⅛× and 1/16× rates of the high rate. Compound requirements are based upon a 12 mL application volume at a rate of 187 liters per hectare (L/ha). Formulated compounds were applied to the plant material with an overhead Mandel track sprayer equipped with 8002E nozzles calibrated to deliver 187 L/ha over an application area of 0.503 square meters at a spray height of 18 inches (43 cm) above the average plant canopy height. Control plants were sprayed in the same manner with the solvent blank.
(§3) The treated plants and control plants were placed in a greenhouse as described above and watered by subirrigation to prevent wash-off of the test compounds. After 21 dAYS, the condition of the test plants as compared with that of the untreated plants was determined visually and scored on a scale of 0 to 100 percent where 0 corresponds to no injury and 100 corresponds to complete kill and presented as indicated in Table A.
(§4) By applying the well-accepted probit analysis as described by J. Berkson in Journal of the American Statistical Society, 48, 565 (1953) and by D. Finney in “Probit Analysis” Cambridge University Press (1952), herbicidal injury of a specific compound at various rates can be used to calculate GR10, GR20, GR50, GR80 and GR90 values, which are defined as growth reduction factors that correspond to the effective dose of herbicide required to provide plant growth reduction (GR) of 10 percent, 20 percent, 50 percent, 80 percent and 90 percent, respectively. Probit analysis was applied to data collected from multiple dose rates of individual compounds utilizing the procedures explained in the following examples. The analysis of those dose rates is captured in the following tables.

[2] = test system: APESV (windgrass); format: in vivo, Apera spica-venti
Procedure: as §1, §2, §3, §4

[3] = test system: PAPRH (common poppy); format: in vivo, Papaver rhoeas; conditions: for Visual Growth Reduction (%) 21 Days After Application, PAPRH: postemergence
Procedure: as §1, §2, §3, §4

[4] = test system: POLCO (wild buckwheat); format: in vivo, Polygonum convolvulus; conditions: for Visual Growth Reduction (%) 21 Days After Application, POLCO: postemergence
Procedure: as §1, §2, §3, §4

[5] = test system: KCHSC (kochia); format: in vivo, Kochia scoparia
Summary of the method: (§5)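 GR10-GR90 values were derived by probit analysis of visual injury (0 = no injury, 100 = complete kill versus untreated), rated 21 days after spraying. Two- to three-true-leaf plants were sprayed at 187 L/ha with serial rates (1× to 1/16×) in aqueous acetone/isopropanol/DMSO with crop oil and X-77. Greenhouse conditions were 18 °C day/17 °C night.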

[6] = test system: TRZSS; format: in vivo
Summary of the method: as §5

[7] = test system: HORSS; format: in vivo
Summary of the method: as §5

[8] = test system: VERPE (Persian speedwell); format: in vivo, Veronica persica; conditions: for Visual Growth Reduction (%) 21 Days After Application, VERPE: postemergence
Procedure: as §1, §2, §3, §4

[9] = effective dose for growth reduction of 50 percent, probit analysis
[10] = effective dose for growth reduction of 80 percent, probit analysis
[11] = effective dose for growth reduction of 90 percent, probit analysis
[12] = effective dose for growth reduction of 10 percent, probit analysis
[13] = effective dose for growth reduction of 20 percent, probit analysis

Nc1c(F)c(-c2ccc(C(F)(F)F)nc2)nc(C(=O)O)c1Cl [Compound 46, 4-amino-5-chloro-3-fluoro-6′-(trifluoromethyl)-[2,3′-bipyridine]-6-carboxylic acid]
Visual Growth Reduction (%) 21 Days After Application, SASKR ([1]; 35 g ai/ha): E (45-59) | Visual Growth Reduction (%) 21 Days After Application, SASKR ([1]; 70 g ai/ha): D (60-74) | Visual Growth Reduction (%) 21 Days After Application, SASKR ([1]; 140 g ai/ha): D (60-74) | GR50, SASKR [1, 9]: 23 g ai/ha | GR80, SASKR [1, 10]: >140 g ai/ha | GR90, SASKR [1, 11]: >140 g ai/ha | pest or weed control at 35 g/ha ([2]; Apera spica-venti, post-emergence, 504 h, 35 g ai/ha, postemergence, read-out: Visual Growth Reduction (%) 21 Days After Application, APESV): 60 to 74% | pest or weed control at 70 g/ha ([2]; Apera spica-venti, post-emergence, 504 h, 70 g ai/ha, postemergence, read-out: Visual Growth Reduction (%) 21 Days After Application, APESV): 75 to 84% | pest or weed control at 140 g/ha ([2]; Apera spica-venti, post-emergence, 504 h, 140 g ai/ha, postemergence, read-out: Visual Growth Reduction (%) 21 Days After Application, APESV): 85 to 94% | GR50, APESV [2, 9]: 37 g ai/ha | GR80, APESV [2, 10]: 78 g ai/ha | GR90, APESV [2, 11]: 115 g ai/ha | Visual Growth Reduction (%) 21 Days After Application, PAPRH ([3]; 35 g ai/ha): A (95-100) | Visual Growth Reduction (%) 21 Days After Application, PAPRH ([3]; 70 g ai/ha): A (95-100) | Visual Growth Reduction (%) 21 Days After Application, PAPRH ([3]; 140 g ai/ha): A (95-100) | GR50, PAPRH [3, 9]: 2 g ai/ha | GR80, PAPRH [3, 10]: 8 g ai/ha | GR90, PAPRH [3, 11]: 16 g ai/ha | Visual Growth Reduction (%) 21 Days After Application, POLCO ([4]; 35 g ai/ha): E (45-59) | Visual Growth Reduction (%) 21 Days After Application, POLCO ([4]; 70 g ai/ha): D (60-74) | Visual Growth Reduction (%) 21 Days After Application, POLCO ([4]; 140 g ai/ha): D (60-74) | GR50, POLCO [4, 9]: 27 g ai/ha | GR80, POLCO [4, 10]: >140 g ai/ha | GR90, POLCO [4, 11]: >140 g ai/ha | pest or weed control at 35 g/ha ([5]; Bassia scoparia, post-emergence, 504 h, 35 g ai/ha, postemergence, read-out: Visual Growth Reduction (%) 21 Days After Application, KCHSC): 60 to 74% | pest or weed control at 70 g/ha ([5]; Bassia scoparia, post-emergence, 504 h, 70 g ai/ha, postemergence, read-out: Visual Growth Reduction (%) 21 Days After Application, KCHSC): 60 to 74% | pest or weed control at 140 g/ha ([5]; Bassia scoparia, post-emergence, 504 h, 140 g ai/ha, postemergence, read-out: Visual Growth Reduction (%) 21 Days After Application, KCHSC): 85 to 94% | GR50, KCHSC [5, 9]: 29 g ai/ha | GR80, KCHSC [5, 10]: 104 g ai/ha | GR90, KCHSC [5, 11]: >140 g ai/ha | pest or weed control at 35 g/ha ([6]; Triticum aestivum, post-emergence, 504 h, 35 g ai/ha, postemergence, read-out: Visual Growth Reduction (%) 21 Days After Application, TRZSS): 75 to 84% | pest or weed control at 70 g/ha ([6]; Triticum aestivum, post-emergence, 504 h, 70 g ai/ha, postemergence, read-out: Visual Growth Reduction (%) 21 Days After Application, TRZSS): 75 to 84% | pest or weed control at 140 g/ha ([6]; Triticum aestivum, post-emergence, 504 h, 140 g ai/ha, postemergence, read-out: Visual Growth Reduction (%) 21 Days After Application, TRZSS): 85 to 94% | GR10, TRZSS [6, 12]: 1 g ai/ha | GR20, TRZSS [6, 13]: 1 g ai/ha | pest or weed control at 35 g/ha ([7]; Hordeum vulgare, post-emergence, 504 h, 35 g ai/ha, postemergence, read-out: Visual Growth Reduction (%) 21 Days After Application, HORSS): 60 to 74% | pest or weed control at 70 g/ha ([7]; Hordeum vulgare, post-emergence, 504 h, 70 g ai/ha, postemergence, read-out: Visual Growth Reduction (%) 21 Days After Application, HORSS): 75 to 84% | pest or weed control at 140 g/ha ([7]; Hordeum vulgare, post-emergence, 504 h, 140 g ai/ha, postemergence, read-out: Visual Growth Reduction (%) 21 Days After Application, HORSS): 85 to 94% | GR10, HORSS [7, 12]: 1 g ai/ha | GR20, HORSS [7, 13]: 3 g ai/ha | Visual Growth Reduction (%) 21 Days After Application, VERPE ([8]; 35 g ai/ha): A (95-100) | Visual Growth Reduction (%) 21 Days After Application, VERPE ([8]; 70 g ai/ha): A (95-100) | Visual Growth Reduction (%) 21 Days After Application, VERPE ([8]; 140 g ai/ha): A (95-100) | GR50, VERPE [8, 9]: 1 g ai/ha | GR80, VERPE [8, 10]: 2 g ai/ha | GR90, VERPE [8, 11]: 8 g ai/ha

Reference: patent US10765114B2, “4-amino-6-(pyridyl and 2-substitutedphenyl)-picolinates and 6-amino-2-(pyridyl and 2-substitutedphenyl)-pyrimidine-4-carboxylates and their use as herbicides” (Dow AgroSciences LLC, priority 2013, dated 2020)
